Where a SMILES comes first, the peptide text is derived from it. [ ]: non-standard residue; d: D form. Inp = O=C(O)C1CCNCC1
What was measured:
[1] = molecular target: T1, fibrinogen binding to thrombin-stimulated platelets (GPIIb/IIIa fibrinogen receptor) (Homo sapiens, UniProt P05106+P08514); assay: Inhibition of radiolabeled (125I) fibrinogen binding assay; conditions: thrombin-stimulated washed platelets; 125I-fibrinogen held at 0.176 μmol/liter (60 μg/ml); 22°-25° C.
T1 construct: endogenous in cells; host or cells: washed platelets, thrombin-stimulated
T1 sequence (P08514 32-887 limits assumed): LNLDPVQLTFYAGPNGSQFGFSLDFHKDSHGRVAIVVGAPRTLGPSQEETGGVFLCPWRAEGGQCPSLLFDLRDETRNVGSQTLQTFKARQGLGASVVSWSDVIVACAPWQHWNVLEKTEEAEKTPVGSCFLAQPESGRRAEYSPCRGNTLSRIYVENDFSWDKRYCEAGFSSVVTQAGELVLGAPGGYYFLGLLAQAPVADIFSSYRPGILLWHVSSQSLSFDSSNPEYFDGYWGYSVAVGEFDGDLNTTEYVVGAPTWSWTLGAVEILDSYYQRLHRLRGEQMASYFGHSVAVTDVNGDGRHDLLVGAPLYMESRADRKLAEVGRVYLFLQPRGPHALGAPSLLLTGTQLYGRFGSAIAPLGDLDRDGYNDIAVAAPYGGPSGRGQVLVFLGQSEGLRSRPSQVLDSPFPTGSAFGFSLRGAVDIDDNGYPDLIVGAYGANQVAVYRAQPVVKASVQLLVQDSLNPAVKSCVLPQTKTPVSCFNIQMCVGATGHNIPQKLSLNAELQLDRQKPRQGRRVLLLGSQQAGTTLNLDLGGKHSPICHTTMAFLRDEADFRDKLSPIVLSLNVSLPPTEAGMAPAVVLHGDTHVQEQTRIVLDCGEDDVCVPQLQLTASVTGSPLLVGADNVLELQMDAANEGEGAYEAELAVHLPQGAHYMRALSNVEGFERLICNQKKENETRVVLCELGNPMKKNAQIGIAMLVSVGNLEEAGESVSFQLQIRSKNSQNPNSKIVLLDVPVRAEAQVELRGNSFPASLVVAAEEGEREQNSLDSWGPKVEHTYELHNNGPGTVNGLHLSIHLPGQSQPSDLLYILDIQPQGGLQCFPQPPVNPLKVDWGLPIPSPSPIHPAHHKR
T1 sequence (P08514 891-1039 limits assumed): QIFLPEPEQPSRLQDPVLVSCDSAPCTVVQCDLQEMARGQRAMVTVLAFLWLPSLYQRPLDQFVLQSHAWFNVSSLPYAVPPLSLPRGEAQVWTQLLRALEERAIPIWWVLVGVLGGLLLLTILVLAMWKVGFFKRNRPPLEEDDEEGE
T1 sequence (P05106 27-788): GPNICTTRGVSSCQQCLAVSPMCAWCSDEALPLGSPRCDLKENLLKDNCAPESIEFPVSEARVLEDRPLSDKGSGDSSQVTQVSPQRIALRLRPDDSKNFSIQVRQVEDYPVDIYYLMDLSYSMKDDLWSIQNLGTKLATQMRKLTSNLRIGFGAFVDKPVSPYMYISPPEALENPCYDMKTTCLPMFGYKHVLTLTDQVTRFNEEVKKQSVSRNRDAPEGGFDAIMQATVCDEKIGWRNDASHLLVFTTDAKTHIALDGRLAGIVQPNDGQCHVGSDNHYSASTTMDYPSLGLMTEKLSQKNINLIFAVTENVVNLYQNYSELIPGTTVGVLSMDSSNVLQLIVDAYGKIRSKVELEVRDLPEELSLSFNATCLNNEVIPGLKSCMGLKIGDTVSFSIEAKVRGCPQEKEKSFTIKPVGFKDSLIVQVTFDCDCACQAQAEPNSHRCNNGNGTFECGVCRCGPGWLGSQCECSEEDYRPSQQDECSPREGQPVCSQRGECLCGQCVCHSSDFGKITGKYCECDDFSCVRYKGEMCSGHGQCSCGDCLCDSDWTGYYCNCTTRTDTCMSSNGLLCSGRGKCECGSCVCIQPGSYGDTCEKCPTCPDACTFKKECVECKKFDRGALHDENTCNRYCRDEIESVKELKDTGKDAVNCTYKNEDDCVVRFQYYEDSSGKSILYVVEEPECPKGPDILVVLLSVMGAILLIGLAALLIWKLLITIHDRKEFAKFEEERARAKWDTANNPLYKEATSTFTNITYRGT
Method: I. Inhibition of Radiolabeled (^125 I) Fibrinogen Binding Assay, which is essentially based on the method described in Proc. Natl. Acad. Sci. U.S.A. Vol. 83, pp. 5708-5712, August 1986, and is as follows.
Platelets are washed free of plasma constituents by the albumin density-gradient technique. In each experimental mixture platelets in modified Tyrode's buffer are stimulated with human α-thrombin at 22°-25° C. for 10 minutes (3.125×10" platelets per liter and thrombin at […]). Hirudin is then added at a 25-fold excess for 5 minutes before addition of the radiolabeled ligand and any competing ligand. After these additions, the final platelet count in the mixture is 1×10"/liter. After incubation for an additional 30 minutes at 22°-25° C., bound and free ligand are separated by centrifuging 50 μl of the mixture through 300 μl of 20% sucrose at 12,000 xg for 4 minutes. The platelet pellet is then separated from the rest of the mixture to determine platelet-bound radioactivity. Nonspecific binding is measured in mixtures containing an excess of unlabeled ligand. When binding curves are analyzed by Scatchard analysis, nonspecific binding is derived as a fitted parameter from the binding isotherm by means of a computerized program. To determine the concentration of each inhibitory compound necessary to inhibit 50% of fibrinogen binding to thrombin-stimulated platelets (IC50), each compound is tested at 6 or more concentrations with ^125 I-labeled fibrinogen held at 0.176 μmol/liter (60 μg/ml). The IC50 is derived by plotting residual fibrinogen binding against the logarithm of the sample compound's concentration.

Human Platelets = Human Platelets (Homo sapiens, UniProt P05106+P08514); assay: Inhibition of fibrinogen-mediated platelet aggregation; format: cell-based; conditions: compound at 100 μM; thrombin-activated human platelets, human fibrinogen added
Sequence of Human Platelets (P08514 32-1039): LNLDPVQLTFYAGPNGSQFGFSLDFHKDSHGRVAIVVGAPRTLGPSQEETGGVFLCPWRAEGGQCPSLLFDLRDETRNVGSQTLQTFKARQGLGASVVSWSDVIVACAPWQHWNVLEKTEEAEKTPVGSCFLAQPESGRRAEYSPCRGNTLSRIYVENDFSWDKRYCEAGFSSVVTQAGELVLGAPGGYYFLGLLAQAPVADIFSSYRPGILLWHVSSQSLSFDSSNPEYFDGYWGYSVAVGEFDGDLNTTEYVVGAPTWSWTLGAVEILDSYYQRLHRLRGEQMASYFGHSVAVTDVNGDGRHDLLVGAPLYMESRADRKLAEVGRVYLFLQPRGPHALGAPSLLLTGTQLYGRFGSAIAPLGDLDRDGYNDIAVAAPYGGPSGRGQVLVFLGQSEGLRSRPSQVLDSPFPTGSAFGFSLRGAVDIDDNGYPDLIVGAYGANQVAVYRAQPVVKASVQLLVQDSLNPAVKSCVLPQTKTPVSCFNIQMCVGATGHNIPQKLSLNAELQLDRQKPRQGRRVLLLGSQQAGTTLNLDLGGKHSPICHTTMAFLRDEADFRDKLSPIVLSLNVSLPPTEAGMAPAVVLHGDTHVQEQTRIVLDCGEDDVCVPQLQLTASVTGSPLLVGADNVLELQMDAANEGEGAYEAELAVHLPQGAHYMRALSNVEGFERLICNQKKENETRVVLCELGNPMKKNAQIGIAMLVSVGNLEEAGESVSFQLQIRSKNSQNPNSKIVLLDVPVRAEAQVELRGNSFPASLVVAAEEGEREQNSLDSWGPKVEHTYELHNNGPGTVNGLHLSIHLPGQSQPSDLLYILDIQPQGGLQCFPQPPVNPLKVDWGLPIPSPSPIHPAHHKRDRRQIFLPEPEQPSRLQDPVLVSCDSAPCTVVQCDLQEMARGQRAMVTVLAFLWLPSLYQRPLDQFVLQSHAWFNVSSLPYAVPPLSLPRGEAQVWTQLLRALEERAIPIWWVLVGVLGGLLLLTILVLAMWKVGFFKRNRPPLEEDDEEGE
Sequence of Human Platelets (P05106 27-788): as the sequence (P05106 27-788) above
Method: II. Inhibition of Fibrinogen - Mediated Platelet Aggregation, which is essentially based on the method described in Blood, Vol. 66, No. 4, Oct. 1985, pp. 946-952, and is as follows.
Human Platelets were isolated from freshly drawn whole blood and were suspended in 0.14 mol/L NaCl, 2.7 mmol/L […], 12 mmol/L NaHCO3, 0.42 mmol/L Na2 HPO4, 0.55 mmol/L glucose, and 5 mmol/L Hepes, pH 7.35 at 2×10^8 platelets/ml. The suspension was incubated at 37° C. An aliquot of 0.4 ml of platelet suspension was activated by human thrombin at a final concentration of 2 μg/ml of thrombin for one minute. After one minute the reaction was stopped by a thrombin inhibitor. Serial dilution of the compound being tested was then added to the activated platelet, the reaction was allowed to proceed for one minute, followed by the addition of human fibrinogen at a final concentration of […] of fibrinogen. Platelet aggregation was then recorded by an aggregometer. Rate of aggregation was used to calculate IC50.

SMILES	IC50 [1]	inhibition at 100 µM (Human Platelets)
CC(C)[C@H](NC(=O)[C@H](CC(=O)O)NC(=O)CNC(=O)C1CCN(C(=N)N)CC1)C(=O)O [1-Amidinopiperidine-4-Carboxylglycyl-L-Aspartyl-L-Valine]	1.8 µM	92%
CC(C)[C@H](NC(=O)[C@H](CC(=O)O)NC(=O)CNC(=O)C1CCCN(C(=N)N)C1)C(=O)O (stereo partly drawn) [N-amidinopiperidine-3-carboxylglycyl-L-aspartyl-L-valine]	10.5 µM	87%
CC(C)[C@H](NC(=O)[C@H](CC(=O)O)NC(=O)CNC(=O)C1CCCNC1)C(=O)O (stereo partly drawn) [Piperidine-3-Carboxylglycyl-L-Aspartyl-L-Valine]	> 64 µM	78%
CC(C)[C@H](NC(=O)[C@H](CC(=O)O)NC(=O)CNC(=O)C1CCNCC1)C(=O)O [Piperidine-4-carboxylglycyl-L-Aspartyl-L-Valine] (H-[Inp]GDV-OH)	10.5 µM	86%

— patent publication US5051405A, “Anti-thrombotic peptides and pseudopeptides” (Rhone-Poulenc Rorer Pharmaceuticals Inc., priority 1989, dated 1991)
